Experimental findings from patent US10597380B2, “Pyridazinone-based broad spectrum anti-influenza inhibitors” (Hoffmann-La Roche Inc., priority 2017, dated 2020) are described below.

Molecules are shown by their SMILES.

The subject of this assay is Influenza A/WSN/33-Luciferase virus. Description: microbe, parasite or virus in culture. The format is cell-based. To be noted: A549, 72 h, luciferase signal three days later, read-out: IC50 antiviral activity (Luciferase reporter assay). (In general: A reporter such as luciferase makes a cellular process visible.)
By IC50 is commonly meant the concentration needed to halve the response being measured. Turning to `O=C(O)CCn1cccc(Nc2nn(-c3ccc(OC(F)(F)F)cc3)c(=O)c3ccccc23)c1=O` [Example 109, 3-[2-Oxo-3-[[4-oxo-3-[4-(trifluoromethoxy)phenyl]phthalazin-1-yl]amino]-1-pyridyl]propanoic acid], the concentration for half-maximal inhibition (IC50) worked out at 0.842 µM. The value for `Cn1cccc(Nc2nn(-c3ccc(OC(F)(F)F)cc3)c(=O)c3c2CCN(CC(C)(C)O)C3)c1=O` [Example 146, 6-(2-Hydroxy-2-methyl-propyl)-1-[(1-methyl-2-oxo-3-pyridyl)amino]-3-[4-(trifluoromethoxy)phenyl]-7,8-dihydro-5H-pyrido[3,4-d]pyridazin-4-one] was 0.167 µM; that for `CN1CCN(CCCn2cccc(Nc3nn(-c4ccc(OC(F)(F)F)cc4)c(=O)c4c3CCC4)c2=O)CC1` [Example 48, 1-[[1-[3-(4-methylpiperazin-1-yl)propyl]-2-oxo-3-pyridyl]amino]-3-[4-(trifluoromethoxy)phenyl]-6,7-dihydro-5H-cyclopenta[d]pyridazin-4-one] was 0.018 µM.

Consider `Cn1cc(C(F)(F)F)cc(Nc2nn(-c3ccc(OC(F)(F)F)cc3)c(=O)c3ccccc23)c1=O` [Example 176, 4-[[1-methyl-2-oxo-5-(trifluoromethyl)-3-pyridyl]amino]-2-[4-(trifluoromethoxy)phenyl]phthalazin-1-one], for which the IC50 is 80.5 µM.

In the case of `COc1ccc(-n2nc(Nc3cccn(C)c3=O)c3c(c2=O)CCC3)cn1` [Example 56, 3-(6-methoxy-3-pyridyl)-1-[(1-methyl-2-oxo-3-pyridyl)amino]-6,7-dihydro-5H-cyclopenta[d]pyridazin-4-one], the IC50 was found to be 0.278 µM. Turning to `CN(C)CCn1cncc(Nc2nn(-c3ccc(OC(F)(F)F)cc3)c(=O)c3ccccc23)c1=O` [Example 80, 4-[[1-[2-(dimethylamino)ethyl]-6-oxo-pyrimidin-5-yl]amino]-2-[4-(trifluoromethoxy)phenyl]phthalazin-1-one], the half-maximal inhibitory concentration (IC50) came out at 0.068 µM. The value for `Cn1cccc(Nc2nn(-c3ccc(OC(F)(F)F)cc3)c(=O)c3c2CC(O)CC3)c1=O` (centres unmarked) [Example 165, 6-hydroxy-4-[(1-methyl-2-oxo-3-pyridyl)amino]-2-[4-(trifluoromethoxy)phenyl]-5,6,7,8-tetrahydrophthalazin-1-one] was 0.024 µM; that for `Cn1cccc(Nc2nn(-c3ccc(OC(F)(F)F)cc3)c(=O)c3c2CCN(C=O)C3)c1=O` [Example 155, 1-[(1-Methyl-2-oxo-3-pyridyl)amino]-4-oxo-3-[4-(trifluoromethoxy)phenyl]-7,8-dihydro-5H-pyrido[3,4-d]pyridazine-6-carbaldehyde] was 0.086 µM; that for `Cn1cccc(Nc2nn(-c3ccc(C(C)(C)O)cc3)c(=O)c3ccccc23)c1=O` [Example 162, 2-[4-(1-Hydroxy-1-methyl-ethyl)phenyl]-4-[(1-methyl-2-oxo-3-pyridyl)amino]phthalazin-1-one] was 1.4 µM. The value for `Cn1cccc(Nc2nn(-c3ccc(OC(F)(F)F)cc3)c(=O)c3cc(CO)ccc23)c1=O` [Example 141, 7-(hydroxymethyl)-4-[(1-methyl-2-oxo-3-pyridyl)amino]-2-[4-(trifluoromethoxy)phenyl]phthalazin-1-one] was 0.012 µM; that for `Cn1cc(F)cc(Nc2nn(-c3ccc(OC(F)(F)F)cc3)c(=O)c3c2CCC3)c1=O` [Example 31, 1-[(5-fluoro-1-methyl-2-oxo-3-pyridyl)amino]-3-[4-(trifluoromethoxy)phenyl]-6,7-dihydro-5H-cyclopenta[d]pyridazin-4-one] was 0.008 µM; that for `Cn1cncc(Nc2nn(-c3ccc(OC(F)(F)F)cc3)c(=O)c3c2CCCC3)c1=O` [Example 22, 4-[(1-methyl-6-oxo-pyrimidin-5-yl)amino]-2-[4-(trifluoromethoxy)phenyl]-5,6,7,8-tetrahydrophthalazin-1-one] was 0.016 µM.

For the compound `Cn1cccc(Nc2nn(-c3ccc(C4CC4)cc3)c(=O)c3ccccc23)c1=O` [Example 12, 2-(4-cyclopropylphenyl)-4-[(1-methyl-2-oxo-3-pyridyl)amino]phthalazin-1-one], the IC50 came out at 0.407 µM. For `O=C(O)CNCCn1cccc(Nc2nn(-c3ccc(OC(F)(F)F)cc3)c(=O)c3c2CCC3)c1=O` [Example 129, 2-[2-[2-Oxo-3-[[4-oxo-3-[4-(trifluoromethoxy)phenyl]-6,7-dihydro-5H-cyclopenta[d]pyridazin-1-yl]amino]-1-pyridyl]ethylamino]acetic acid] the value was 0.079 µM; for `CN(C)C(=O)C(C)(C)Cn1cccc(Nc2nn(-c3ccc(OC(F)(F)F)cc3)c(=O)c3ccccc23)c1=O` [Example 100, N,N,2,2-tetramethyl-3-[2-oxo-3-[[4-oxo-3-[4-(trifluoromethoxy)phenyl]phthalazin-1-yl]amino]-1-pyridyl]propanamide], 0.036 µM.

Take `Cn1cccc(Nc2nn(-c3ccc(C(C)(C)C)cc3F)c(=O)c3c2CCC3)c1=O` [Example 53, 3-(4-tert-butyl-2-fluoro-phenyl)-1-[(1-methyl-2-oxo-3-pyridyl)amino]-6,7-dihydro-5H-cyclopenta[d]pyridazin-4-one]: the concentration for half-maximal inhibition (IC50) amounted to 0.024 µM. For `COc1ccc2c(Nc3cccn(C)c3=O)nn(-c3ccc(OC(F)(F)F)cc3)c(=O)c2c1` [Example 16, 7-methoxy-4-[(1-methyl-2-oxo-3-pyridyl)amino]-2-[4-(trifluoromethoxy)phenyl]phthalazin-1-one] the value was 0.012 µM.

As to `Cc1cc(Nc2nn(-c3ccc(OC(F)(F)F)cc3)c(=O)c3c2CCC3)c(=O)n(C)n1` [Example 29, 1-[(2,6-dimethyl-3-oxo-pyridazin-4-yl)amino]-3-[4-(trifluoromethoxy)phenyl]-6,7-dihydro-5H-cyclopenta[d]pyridazin-4-one], the half-maximal inhibitory concentration (IC50) came to 0.022 µM.

Take `Cn1cccc(Nc2nn(-c3ccc(C(C)(C)C)cc3)c(=O)c3ccccc23)c1=O` [Example 14, 2-(4-tert-butylphenyl)-4-[(1-methyl-2-oxo-3-pyridyl)amino]phthalazin-1-one]: the half-inhibitory concentration (IC50) stood at 0.109 µM. For `CNC(=O)COCCn1cccc(Nc2nn(-c3ccc(OC(F)(F)F)cc3)c(=O)c3c2CCC3)c1=O` [Example 107, N-methyl-2-[2-[2-oxo-3-[[4-oxo-3-[4-(trifluoromethoxy)phenyl]-6,7-dihydro-5H-cyclopenta[d]pyridazin-1-yl]amino]-1-pyridyl]ethoxy]acetamide] the value was 0.049 µM; for `Cc1cc(OC(F)(F)F)ccc1-n1nc(Nc2cccn(C)c2=O)c2c(c1=O)CCC2` [Example 171, 1-[(1-Methyl-2-oxo-3-pyridyl)amino]-3-[2-methyl-4-(trifluoromethoxy)phenyl]-6,7-dihydro-5H-cyclopenta[d]pyridazin-4-one], 6.83 µM; for `COC(=O)N1CCc2c(c(Nc3cccn(C)c3=O)nn(-c3ccc(OC(F)(F)F)cc3)c2=O)C1` [Example 152, Methyl 4-[(1-methyl-2-oxo-3-pyridyl)amino]-1-oxo-2-[4-(trifluoromethoxy)phenyl]-7,8-dihydro-5H-pyrido[3,4-d]pyridazine-6-carboxylate], 0.032 µM. Regarding `Cn1cncc(Nc2nn(-c3ccc(OC(F)(F)F)cc3)c(=O)c3c2CCC3)c1=O` [Example 30, 1-[(1-methyl-6-oxo-pyrimidin-5-yl)amino]-3-[4-(trifluoromethoxy)phenyl]-6,7-dihydro-5H-cyclopenta[d]pyridazin-4-one], the 50% inhibitory concentration (IC50) was determined as 0.037 µM. For `COc1ccc(-n2nc(Nc3cc(F)cn(C)c3=O)c3c(c2=O)CCC3)cn1` [Example 57, 1-[(5-fluoro-1-methyl-2-oxo-3-pyridyl)amino]-3-(6-methoxy-3-pyridyl)-6,7-dihydro-5H-cyclopenta[d]pyridazin-4-one] the value was 0.352 µM; for `COCCn1cccc(Nc2nn(-c3ccc(OC(F)(F)F)cc3)c(=O)c3ccccc23)c1=O` [Example 71, 4-[[1-(2-methoxyethyl)-2-oxo-3-pyridyl]amino]-2-[4-(trifluoromethoxy)phenyl]phthalazin-1-one], 0.054 µM; for `Cn1cccc(Nc2nn(-c3ccc(C4COC4)cc3)c(=O)c3ccccc23)c1=O` [Example 11, 4-[(1-methyl-2-oxo-3-pyridyl)amino]-2-[4-(oxetan-3-yl)phenyl]phthalazin-1-one], 2.01 µM.

For the compound `CC(=O)N1CCc2c(Nc3cc(F)cn(C)c3=O)nn(-c3ccc(OC(F)(F)F)cc3)c(=O)c2C1` [Example 87, 6-acetyl-1-[(5-fluoro-1-methyl-2-oxo-3-pyridyl)amino]-3-[4-(trifluoromethoxy)phenyl]-7,8-dihydro-5H-pyrido[3,4-d]pyridazin-4-one], the IC50 was found to be 0.017 µM. For the compound `Cn1cccc(Nc2nn(-c3ccc(OC(F)(F)F)cc3)c(=O)c3c2CCN(S(C)(=O)=O)C3)c1=O` [Example 156, 1-[(1-Methyl-2-oxo-3-pyridyl)amino]-6-methylsulfonyl-3-[4-(trifluoromethoxy)phenyl]-7,8-dihydro-5H-pyrido[3,4-d]pyridazin-4-one], the IC50 worked out at 0.266 µM. The value for `CNC(=O)Cn1cccc(Nc2nn(-c3ccc(OC(F)(F)F)cc3)c(=O)c3ccccc23)c1=O` [Example 91, N-methyl-2-[2-oxo-3-[[4-oxo-3-[4-(trifluoromethoxy)phenyl]phthalazin-1-yl]amino]-1-pyridyl]acetamide] was 0.041 µM; that for `O=C(O)CCCn1cccc(Nc2nn(-c3ccc(OC(F)(F)F)cc3)c(=O)c3c2CCC3)c1=O` [Example 118, 4-[2-oxo-3-[[4-oxo-3-[4-(trifluoromethoxy)phenyl]-6,7-dihydro-5H-cyclopenta[d]pyridazin-1-yl]amino]-1-pyridyl]butanoic acid] was 0.953 µM; that for `Cn1cccc(Nc2nn(-c3ccc(OC(F)(F)F)cc3)c(=O)c3c2CCNC3)c1=O` [Example 134, 1-[(1-Methyl-2-oxo-3-pyridyl)amino]-3-[4-(trifluoromethoxy)phenyl]-5,6,7,8-tetrahydropyrido[3,4-d]pyridazin-4-one] was 0.521 µM. For `CC(O)(CN)Cn1cccc(Nc2nn(-c3ccc(OC(F)(F)F)cc3)c(=O)c3c2CCC3)c1=O` (centres unmarked) [Example 166, 1-[[1-(3-Amino-2-hydroxy-2-methyl-propyl)-2-oxo-3-pyridyl]amino]-3-[4-(trifluoromethoxy)phenyl]-6,7-dihydro-5H-cyclopenta[d]pyridazin-4-one] the value was 0.107 µM.
